Measurements published in patent publication US12187742B2 (XRAD Therapeutics, Inc., priority 2018, dated 2025).
Counter-ions that a name gives are not always drawn.

Legend:
ATM = ATM (Homo sapiens (Human), UniProt Q13315); assay: ATM in Cell Western Assay (pKAP1 in etoposide-treated MCF-7 cells); assay type: cell-based; conditions: MCF-7 cells, etoposide 100 μM, 1 hr, pKAP1 readout
Outline: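 After paraformaldehyde fixation and Triton X-100 permeabilization, immunostained plates were read by infrared scanning (ODYSSEY CLx). Compound was given as 10 doses, 3-fold dilutions from a 1 μM final top concentration.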

DNA-PK = DNA-PK (Homo sapiens (Human), UniProt P78527); assay: DNA-PK Enzyme-Linked Immunosorbent Assay (phosphorylation of GST-p53 (1-101) peptide); assay type: biochemical; conditions: ELISA, ATP 20 μM
Outline: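 Inhibition measured by 450 nm absorbance after HRP/TMB detection of phospho-Ser15 on immobilized GST-p53 (1-101). The kinase reaction used 0.1 μg/mL DNA-PK and 20 μM ATP, 1 h at 25 °C. Ten 3-fold compound dilutions, top final concentration 100 nM.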

Sequence of ATM (Q13315 whole entry): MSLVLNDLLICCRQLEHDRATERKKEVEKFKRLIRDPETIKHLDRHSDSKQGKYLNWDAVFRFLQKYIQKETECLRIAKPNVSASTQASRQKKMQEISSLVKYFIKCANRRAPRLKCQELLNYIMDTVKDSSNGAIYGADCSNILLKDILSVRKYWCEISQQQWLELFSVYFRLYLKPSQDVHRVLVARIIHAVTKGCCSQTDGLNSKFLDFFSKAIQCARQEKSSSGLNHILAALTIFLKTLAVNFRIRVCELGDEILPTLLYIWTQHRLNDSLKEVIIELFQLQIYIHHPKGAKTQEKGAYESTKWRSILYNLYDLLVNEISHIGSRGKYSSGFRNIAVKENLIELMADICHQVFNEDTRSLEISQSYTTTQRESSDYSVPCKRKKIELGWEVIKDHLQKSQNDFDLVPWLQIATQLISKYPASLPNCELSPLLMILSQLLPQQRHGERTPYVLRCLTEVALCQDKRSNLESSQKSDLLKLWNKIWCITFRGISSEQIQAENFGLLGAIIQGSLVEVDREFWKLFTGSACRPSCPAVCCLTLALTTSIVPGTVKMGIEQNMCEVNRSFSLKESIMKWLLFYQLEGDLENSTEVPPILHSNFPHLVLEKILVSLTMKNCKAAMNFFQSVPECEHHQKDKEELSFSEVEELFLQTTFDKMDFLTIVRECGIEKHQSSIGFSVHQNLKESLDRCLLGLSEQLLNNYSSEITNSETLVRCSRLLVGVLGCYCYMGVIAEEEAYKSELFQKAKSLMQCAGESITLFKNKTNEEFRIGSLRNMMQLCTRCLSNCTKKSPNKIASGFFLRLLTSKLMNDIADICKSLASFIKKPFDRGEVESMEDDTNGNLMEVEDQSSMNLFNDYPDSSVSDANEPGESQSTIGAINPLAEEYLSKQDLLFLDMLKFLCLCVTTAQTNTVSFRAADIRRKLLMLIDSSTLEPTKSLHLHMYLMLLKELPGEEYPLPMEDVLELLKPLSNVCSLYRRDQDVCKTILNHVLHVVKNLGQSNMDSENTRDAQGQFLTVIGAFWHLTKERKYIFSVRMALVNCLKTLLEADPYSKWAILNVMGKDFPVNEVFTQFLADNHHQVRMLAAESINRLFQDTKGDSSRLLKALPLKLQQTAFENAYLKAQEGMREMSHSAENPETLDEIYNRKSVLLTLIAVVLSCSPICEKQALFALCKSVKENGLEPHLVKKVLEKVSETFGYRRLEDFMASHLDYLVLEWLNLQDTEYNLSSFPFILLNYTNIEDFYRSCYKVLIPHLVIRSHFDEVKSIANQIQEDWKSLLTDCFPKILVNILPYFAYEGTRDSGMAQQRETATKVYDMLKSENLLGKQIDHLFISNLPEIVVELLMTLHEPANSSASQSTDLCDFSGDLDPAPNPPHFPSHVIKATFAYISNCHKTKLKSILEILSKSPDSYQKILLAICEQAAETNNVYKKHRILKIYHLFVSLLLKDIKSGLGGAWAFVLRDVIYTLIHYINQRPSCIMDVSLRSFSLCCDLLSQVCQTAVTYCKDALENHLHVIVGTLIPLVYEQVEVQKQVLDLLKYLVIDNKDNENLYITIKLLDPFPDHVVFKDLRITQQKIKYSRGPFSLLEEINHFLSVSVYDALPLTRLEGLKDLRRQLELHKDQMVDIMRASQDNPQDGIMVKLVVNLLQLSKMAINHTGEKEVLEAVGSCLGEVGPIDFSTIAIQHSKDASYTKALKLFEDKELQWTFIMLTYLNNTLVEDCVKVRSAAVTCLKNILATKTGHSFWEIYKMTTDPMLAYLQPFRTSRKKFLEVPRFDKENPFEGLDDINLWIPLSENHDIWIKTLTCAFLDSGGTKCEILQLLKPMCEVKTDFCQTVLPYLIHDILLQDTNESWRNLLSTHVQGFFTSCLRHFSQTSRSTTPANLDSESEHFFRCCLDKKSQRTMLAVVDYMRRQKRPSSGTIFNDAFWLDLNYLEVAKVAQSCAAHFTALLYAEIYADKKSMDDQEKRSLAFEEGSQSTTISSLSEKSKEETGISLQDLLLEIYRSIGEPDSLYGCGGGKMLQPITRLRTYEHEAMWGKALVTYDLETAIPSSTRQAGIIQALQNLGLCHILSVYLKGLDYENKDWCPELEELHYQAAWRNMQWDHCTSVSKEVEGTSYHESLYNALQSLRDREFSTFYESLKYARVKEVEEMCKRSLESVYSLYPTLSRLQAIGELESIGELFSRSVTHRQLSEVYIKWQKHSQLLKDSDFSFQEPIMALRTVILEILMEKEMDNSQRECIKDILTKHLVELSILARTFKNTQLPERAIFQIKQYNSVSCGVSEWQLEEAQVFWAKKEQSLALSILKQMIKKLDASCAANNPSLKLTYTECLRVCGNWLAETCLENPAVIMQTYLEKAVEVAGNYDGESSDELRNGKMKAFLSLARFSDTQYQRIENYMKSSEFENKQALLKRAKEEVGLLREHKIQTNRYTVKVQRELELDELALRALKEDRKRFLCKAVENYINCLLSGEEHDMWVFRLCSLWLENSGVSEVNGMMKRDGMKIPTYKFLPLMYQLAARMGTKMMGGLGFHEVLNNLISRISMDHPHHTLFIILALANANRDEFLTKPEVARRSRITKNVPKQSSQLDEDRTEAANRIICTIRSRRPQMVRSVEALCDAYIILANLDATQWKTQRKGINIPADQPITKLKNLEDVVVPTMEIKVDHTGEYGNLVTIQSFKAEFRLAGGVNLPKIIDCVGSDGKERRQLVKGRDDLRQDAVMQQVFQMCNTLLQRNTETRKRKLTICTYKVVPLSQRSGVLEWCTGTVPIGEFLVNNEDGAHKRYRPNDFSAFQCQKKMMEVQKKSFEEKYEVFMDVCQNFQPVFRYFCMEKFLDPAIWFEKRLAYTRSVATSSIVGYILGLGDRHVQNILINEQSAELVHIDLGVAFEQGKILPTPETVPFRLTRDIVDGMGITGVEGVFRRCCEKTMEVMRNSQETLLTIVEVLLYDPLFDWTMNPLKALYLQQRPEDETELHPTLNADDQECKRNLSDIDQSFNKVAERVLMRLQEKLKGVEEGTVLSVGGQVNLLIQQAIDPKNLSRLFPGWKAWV

Row | IC50 (ATM) [nM] | IC50 (DNA-PK) [nM] | Structure (SMILES)
1 | 1 to 100 | 1 to 100 | CN1C(=O)C2(CCC2)c2c1cnc1ccc(-c3cnc(OCCCN4CCOCC4)c(NS(=O)(=O)c4ccccc4)c3)cc21 [Example 131, N-(5-(3′-Methyl-2′-oxo-2′,3′-dihydrospiro[cyclobulane-1,1′-pyrrolo[2,3-c]quinolin]-8′-yl)-2-(3-morpholinopropoxy)pyridin-3-yl)benzenesulfonamide hydrochloride]
2 | 1 to 100 | 1 to 100 | CN1C(=O)C2(CCC2)c2c1cnc1ccc(-c3cnc(OCCCN4CCCCC4)c(NS(=O)(=O)c4ccccc4)c3)cc21 [Example 132, N-(5-(3′-Methyl-2′-oxo-2′,3′-dihydrospiro[cyclobulane-1,1′-pyrrolo[2,3-c]quinolin]-8′-yl)-2-(3-(piperidin-1-yl)propoxy)pyridin-3-yl)benzenesulfonamide hydrochloride]
3 | 1 to 100 | 0.5 to 1 | COc1ccc(S(=O)(=O)Nc2cc(-c3ccc4ncc5c(c4c3)C3(CCC3)C(=O)N5C)cnc2OCCCN(C)C)cn1 [Example 133, N-(2-(3-(Dimethylamino)propoxy)-5-(3′-methyl-2′-oxo-2′,3′-dihydrospiro[cyclobulane-l.1′-pyrrolo[2,3-c]quinolin]-8′-yl)pyridin-3-yl)-6-methoxypyridine-3-sulfonamide hydrochloride]
4 | 1 to 100 | 1 to 100 | CN(C)CCCOc1ncc(-c2ccc3ncc4c(c3c2)C2(CCC2)C(=O)N4C)cc1NS(=O)(=O)c1ccc(S(F)(F)(F)(F)F)cc1 [Example 134, N-(2-(3-(Dimethylamino)propoxy)-5-(3′-methyl-2′-oxo-2′,3′-dihydrospiro[cyclobulane-1,1′-pyrrolo[2,3-c]quinolin]-8′-yl)pyridin-3-yl)-4-(pentafluoro-16-sulfaneyl) benzenesulfonamide]
5 | 1 to 100 | 1 to 100 | CN(C)CCCOc1ncc(-c2ccc3ncc4c(c3c2)C2(CCC2)C(=O)N4C)cc1NS(=O)(=O)N1CCOCC1 [Example 136, N-(2-(3-(Dimethylamino)propoxy)-5-(3′-methyl-2′-oxo-2′,3′-dihydrospiro [cyclobutane-1,1′-pyrrolo[2,3-c]quinolin]-8′-yl)pyridin-3-yl)morpholine-4-sulfonamide hydrochloride]
6 | 1 to 100 | 1 to 100 | Cc1ccc(S(=O)(=O)Nc2cc(-c3ccc4ncc5c(c4c3)C3(CCC3)C(=O)N5C)cnc2OCCCN(C)C)cn1 [Example 137, N-(2-(3-(Dimethylamino)propoxy)-5-(3′-methyl-2′-oxo-2′,3′-dihydrospiro[cyclobutane-1,1′-pyrrolo[2,3-c]quinolin]-8′-yl)pyridin-3-yl)-6-methylpyridine-3-sulfonamide hydrochloride]
7 | 1 to 100 | > 100 | CN(C)CCCOc1ncc(-c2ccc3ncc4c(c3c2)C2(CCC2)C(=O)N4C)cc1NS(=O)(=O)c1cncc(C(F)(F)F)c1 [Example 141, N-(2-(3-(Dimethylamino)propoxy)-5-(3′-methyl-2′-oxo-2′,3′-dihydrospiro[cyclobulane-1,1′-pyrrolo[2,3-c]quinolin]-8′-yl)pyridin-3-yl)-5-(trifluoromethyl)pyridine-3-sulfonamide hydrochloride]
8 | 1 to 100 | < 0.5 | Cc1ccc(S(=O)(=O)Nc2cc(-c3ccc4ncc5c(c4c3)C3(CCC3)C(=O)N5C)cnc2OCCCN2CCCCC2)cn1 [Example 142, 6-Methyl-N-(5-(3 methyl-2′-oxo-2′,3′-dihydrospiro[cyclobulane-1,1′-pyrrolo[2,3-c]quinolin]-8′-yl)-2-(3-(piperidin-1-yl)propoxy)pyridin-3-yl)pyridine-3-sulfonamide hydrochloride]
9 | 1 to 100 | 1 to 100 | COc1ccc(S(=O)(=O)Nc2cc(-c3ccc4ncc5c(c4c3)C3(CCC3)C(=O)N5C)cnc2OCCCN(C)C)cc1 [Example 144, N-(2-(3-(Dimethylamino)propoxy)-5-(3′-methyl-2′-oxo-2′,3′-dihydrospiro [cyclobutane-1,1′-pyrrolo[2,3-c]quinolin]-8′-yl)pyridin-3-yl)-4-methoxybenzenesulfonamide hydrochloride]
10 | 1 to 100 | 0.5 to 1 | Cc1ccc(S(=O)(=O)Nc2cc(-c3ccc4ncc5c(c4c3)C3(CCC3)C(=O)N5C)cnc2OCCCN(C)C)cc1 [Example 145, N-(2-(3-(Dimethylamino)propoxy)-5-(3′-methyl-2′-oxo-2′,3′-dihydrospiro [cyclobulane-1,1′-pyrrolo[2,3-c]quinolin]-8′-yl)pyridin-3-yl)-4-methylbenzenesulfonamide hydrochloride]
11 | 1 to 100 | 1 to 100 | CN(C)CCCOc1ncc(-c2ccc3ncc4c(c3c2)C2(CCC2)C(=O)N4C)cc1NS(=O)(=O)c1ccc(C(F)(F)F)nc1 [Example 146, N-(2-(3-(Dimethylamino)propoxy)-5-(3′-methyl-2′-oxo-2′,3′-dihydrospiro [cyclobulane-1,1′-pyrrolo[2,3-c]quinolin]-8′-yl)pyridin-3-yl)-6-(trifluoromethyl)pyridine-3-sulfonamide hydrochloride]
12 | 1 to 100 | 0.5 to 1 | CN(C)CCCOc1ncc(-c2ccc3ncc4c(c3c2)C2(CCC2)C(=O)N4C)cc1NS(=O)(=O)c1ccc(C#N)nc1 [Example 147, 6-Cyano-N-(2-(3-(dimethylamino)propoxy)-5-(3′-methyl-2′-oxo-2′,3′-dihydrospiro[cyclobulane-1,1′-pyrrolo[2,3-c]quinolin]-8′-yl)pyridin-3-ylpyridine-3-sulfonamide hydrochloride]
13 | 1 to 100 | 1 to 100 | CN(C)CCCOc1ncc(-c2ccc3ncc4c(c3c2)C2(CCC2)C(=O)N4C)cc1NS(=O)(=O)c1ccccn1 [Example 148, N-(2-(3-(Dimethylamino)propoxy)-5-(3′-methyl-2-oxo-2′,3′-dihydrospiro[cyclobulane-1,1′-pyrrolo[2,3-c]quinolin]-8′-yl)pyridin-3-yl)pyridine-2-sulfonamide hydrochloride]
14 | < 0.5 | 0.5 to 1 | CN(C)CCCOc1ncc(-c2ccc3ncc4c(c3c2)C2(CCC2)C(=O)N4C)cc1NS(=O)(=O)N(C)C [Example 149, 8′-{6-[3-(Dimethylamino)propoxy]-5-[(dimethylsulfamoyl)amino]pyridine-3-yl}-3′-methyl-2′,3′-dihydrospiro[cyclobutane-1,1′-pyrrolo[2,3-c]quinoline]-2′-one hydrochloride]
15 | 1 to 100 | 1 to 100 | CN(C)CCCOc1ncc(-c2ccc3ncc4c(c3c2)C2(CCC2)C(=O)N4C)cc1NS(=O)(=O)c1cccc(C(F)(F)F)c1 [Example 150, N-(2-(3-(Dimethylamino)propoxy)-5-(3′-methyl-2′-oxo-2′,3′-dihydrospiro[cyclobutane-1,1′-pyrrolo[2,3-c]quinolin]-8′-yl)pyridin-3-yl)-3-(trifluoromethyl)benzenesulfonamide]
16 | 1 to 100 | 0.5 to 1 | CN(C)CCCOc1ncc(-c2ccc3ncc4c(c3c2)C2(CCC2)C(=O)N4C)cc1NS(=O)(=O)c1cc(F)cc(F)c1 [Example 153, N-(2-(3-(Dimethylamino)propoxy)-5-(3′-methyl-2′-oxo-23′-dihydrospiro[cyclobutane-1,1′-pyrrolo[2,3-c]quinolin]-8′-yl)pyridin-3-yl)-3,5-difluorobenzenesulfonamide]
17 | 1 to 100 | 1 to 100 | CN(C)CCCOc1ncc(-c2ccc3ncc4c(c3c2)C2(CCC2)C(=O)N4C)cc1NS(=O)(=O)c1cc(Cl)cc(C(F)(F)F)c1 [Example 154, 3-Chloro-N-(2-(3-(dimethylamino)propoxy)-5-(3′-methyl-2′-oxo-2′,3′-dihydrospiro[cyclobutane-1,1′-pyrrolo[2,3-c]quinolin]-8′-yl)pyridin-3-yl)-5-(trifluoromethyl)benzenesulfonamide hydrochloride]
18 | 1 to 100 | 0.5 to 1 | CN1C(=O)C2(CCC2)c2c1cnc1ccc(-c3cnc(N4CCC(N5CCCCC5)CC4)c(NS(=O)(=O)c4ccccc4)c3)cc21 [Example 155, N-(2-([1,4′-Bipiperidin]-1′-yl)-5-(3′-methyl-2′-oxo-2′,3′-dihydrospiro[cyclobulane-1,1′-pyrrolo[2,3-c]quinolin]-8′-yl)pyridin-3-yl)benzenesulfonamide hydrochloride]
19 | 1 to 100 | 1 to 100 | CN(C)CCCOc1ncc(-c2ccc3ncc4c(c3c2)C2(CCC2)C(=O)N4C)cc1NS(=O)(=O)c1cc(F)cc(C(F)(F)F)c1 [Example 156, N-(2-(3-(Dimethylamino)propoxy)-5-(3′-methyl-2′-oxo-2′,3′-dihydrospiro[cyclobulane-1,1′-pyrrolo[2,3-c]quinolin]-8′-yl)pyridin-3-yl)-3-fluoro-5-(trifluoromethyl)benzenesulfonamide hydrochloride]
20 | 1 to 100 | 1 to 100 | CN(C)CCCOc1ncc(-c2ccc3ncc4c(c3c2)C2(CCC2)C(=O)N4C)cc1NS(=O)(=O)c1cc(Cl)cc(Cl)c1 [Example 157, 3,5-Dichloro-N-(2-(3-(dimethylamino)propoxy)-5-(3′-methyl-2′-oxo-2′,3′-dihydrospiro [cyclobutane-1,1′-pyrrolo[2,3-c]quinolin]-8′-yl)pyridin-3-yl) benzenesulfonamide hydrochloride]
21 | 0.5 to 1 | 0.5 to 1 | CN(C)CCCOc1ncc(-c2ccc3ncc4c(c3c2)C2(CCC2)C(=O)N4C)cc1NS(=O)(=O)c1ccc(F)cc1 [Example 158, N-(2-(3-(Dimethylamino)propoxy)-5-(3′-methyl-2-oxo-2′,3′-dihydrospiro[cyclobulane-1,1′-pyrrolo[2,3-c]quinolin]-8′-yl)pyridin-3-yl)-4-fluorobenzenesulfonamide hydrochloride]
